Among the data in article PMC11166409 (Transfusion Medicine and Hemotherapy, 2024) are IC50 values, retold here.

Residues, ends and D or L forms follow the SMILES beside them.

For this assay, the target named is HLA-A*02:01 (Homo sapiens, UniProt P04439, D140Y/D185E/D98H/E176V/E277Q/G131W/G231S/I119V/I121R/I166T/I218V/L300P/L318F/N151K/N90K/P208A/P217A/Q86G/Q94H/R138H/R169H/T345S). As to the kind of experiment: Competition-based peptide binding assay on EBV-LCL48 cells.

As usually defined, the IC50 is the concentration needed to halve the response being measured. Read a high IC50 as weaker potency. `CC[C@H](C)[C@H](NC(=O)[C@@H](N)Cc1ccc(O)cc1)C(=O)N[C@@H](Cc1ccc(O)cc1)C(=O)N[C@@H](CC(N)=O)C(=O)N[C@@H](CCCNC(=N)N)C(=O)N[C@@H](CCC(=O)O)C(=O)N[C@@H](CCC(=O)O)C(=O)N[C@@H](CC(C)C)C(=O)N[C@H](C(=O)O)C(C)C` (H-YIYNREELV-OH) displayed an IC50 of 3.9 µM.
Then `CC[C@H](C)[C@H](NC(=O)[C@@H](N)Cc1ccc(O)cc1)C(=O)N[C@@H](Cc1ccc(O)cc1)C(=O)N[C@@H](CC(N)=O)C(=O)N[C@@H](CCCNC(=N)N)C(=O)N[C@@H](CCC(=O)O)C(=O)N[C@@H](CCC(=O)O)C(=O)N[C@@H](Cc1ccccc1)C(=O)N[C@H](C(=O)O)C(C)C` (H-YIYNREEFV-OH), with 4.9 µM.
